Measured values as given in PubChem BioAssay AID2060502 (Molecular Pharmacology Branch, DTP, NCI, 2025).
Values joined by “and” are separate entries in the source; they are usually repeats but may differ in a detail not shown here. Equal entries are not always repeated.

System: 885724-159-R-J1-PDC complex spheroid viability
Assay: Anticancer human tumor 885724-159-R-J1-PDC patient-derived pancreatic adenocarcinoma cell line growth inhibition [GQUAD]
Details: for viability, T/C: stronger effect = lower value; active = viability on the fitted dose curve at most 10% of control; inactive = the rest
Text: DNA G-quadruplex Stabilizer Agents in Combinations in Complex Spheroids
A high-throughput screen of multi-cell type tumor spheroids was designed to identify active combinations of DNA G-quadruplex stabilizer agents and targeted small molecules. Complex spheroids include a stromal component modeled by human endothelial cells (HUVEC) and fibroblasts modeled by human mesenchymal stem cells (MSCs). The concentration ranges selected for each drug and investigational agent were based upon clinically achievable concentrations if the clinical Cmax of the agent was known.
Compounds. The drugs and investigational agents: pidnarulex (CX-5461; NSC782164), APTO-253 (NSC789042), BRACO-19 (NSC847499), peposertib (NSC802822), ceralasertib (NSC780249), elimusertib (NSC800525), camonsertib (NSC841442), AZD-1390 (NSC803789), olaparib (NSC753686), talazoparib (NSC767125), ART-558 (NSC835418), sotorasib (NSC818433), MRTX-1133 (NSC836407), SN-38 (NSC673596), topotecan (NSC609699), etoposide (NSC141540), doxorubicin (NSC123127), gemcitabine (NSC613327), 5-fluorouracil (NSC19893), paclitaxel (NSC125973), vemurafenib (NSC761431), panobinostat (NSC761190), R-306465 (JNJ-16241199; NSC773264), adavosertib (NSC754352), TP-3654 (NSC805149), carboplatin (NSC241240), KSQ-4279 (NSC840948), and staurosporine (NSC755774) were obtained from the National Cancer Institute (NCI) Developmental Therapeutics Program Chemical Repository (34). The FDA-approved anticancer drug set is available from the NCI Developmental Therapeutics Program. […] The stock solutions were prepared in dimethyl sulfoxide (DMSO, Sigma-Aldrich, St. Louis, MO, cat. D2650) at 800-fold the tested concentration and stored at -70 degrees C prior to their use. All drugs and investigational agents were tested over a range starting from a high concentration at or near the clinical Cmax and decreasing in half-log increments. If the clinical Cmax for an agent had not been determined, the highest concentration tested was 10 microM.
2.3 Cell Culture. All cells were maintained in an incubator at 37 degrees C and 5% CO2 with 95% humidity. The PDC lines were cultured according to standard operating procedures established by the NCI PDMR. All PDCs were thawed and cultured in Matrigel-coated flasks prepared with a working solution of 1X Ham's F-12 nutrient mix, without supplementation (Invitrogen, cat. 11765054), 100 U/mL penicillin-streptomycin (Invitrogen, cat. 15140122), and 2.5% Matrigel (Corning Inc., cat. 354248) for the first three passages. The 857933-349-R-J2-PDC line was cultured in 6C/Colon 1B media, which includes advanced DMEM/F-12 (Thermo Fisher Scientific, cat. 12634028), 10 mM HEPES (Thermo Fisher Scientific, cat. 15630080), 1X GlutaMAX supplement (Thermo Fisher Scientific, cat. 35050061), 0.1 mg/mL primocin (InvivoGen, cat. ant-pm-2), 10% defined fetal bovine serum, heat inactivated (HyClone Laboratories Inc., cat. SH30070.03HI), 50% L-WRN conditioned media (ATCC, cat. CRL-3276), 1.25 mM N-Acetyl-L-cysteine (Sigma-Aldrich, cat. A9165), 10 mM nicotinamide (Sigma-Aldrich, cat. N0636), 1X B-27 supplement (Thermo Fisher Scientific, cat. 17504044), 1X N-2 supplement (Thermo Fisher Scientific, cat. 17502048), 10 microM Y-27632 dihydrochloride (Tocris Bioscience, cat. 1254), and 50 ng/mL human EGF recombinant protein (Thermo Fisher Scientific, cat. PHG0311). The 485176-168-R4-J1-PDC line was cultured in Panc media, which includes all 6C/Colon 1B media components plus 100 ng/mL human FGF-10 (Thermo Fisher Scientific, cat. 100-26), 500 nM SB-431542 (Selleckchem, cat. S1067), and gastrin (Tocris, cat. 3006).
[…]

[1] = curve of first compound, second compound 0.0316 µM
[2] = curve of first compound, second compound 0.1 µM
[3] = curve of first compound, second compound 0.316 µM
[4] = curve of first compound, second compound 1 µM
[5] = curve of first compound, second compound 3.16 µM
[6] = curve of first compound, second compound 10 µM
[7] = second compound 0.0316 µM, first compound 0.0316 µM
[8] = second compound 0.0316 µM, first compound 0.1 µM
[9] = second compound 0.0316 µM, first compound 0.316 µM
[10] = second compound 0.0316 µM, first compound 1 µM
[11] = second compound 0.0316 µM, first compound 3.16 µM
[12] = second compound 0.0316 µM, first compound 10 µM
[13] = second compound 0.1 µM, first compound 0.0316 µM
[14] = second compound 0.1 µM, first compound 0.1 µM
[15] = second compound 0.1 µM, first compound 0.316 µM
[16] = second compound 0.1 µM, first compound 1 µM
[17] = second compound 0.1 µM, first compound 3.16 µM
[18] = second compound 0.1 µM, first compound 10 µM
[19] = second compound 0.316 µM, first compound 0.0316 µM
[20] = second compound 0.316 µM, first compound 0.1 µM
[21] = second compound 0.316 µM, first compound 0.316 µM
[22] = second compound 0.316 µM, first compound 1 µM
[23] = second compound 0.316 µM, first compound 3.16 µM
[24] = second compound 0.316 µM, first compound 10 µM
[25] = second compound 1 µM, first compound 0.0316 µM
[26] = second compound 1 µM, first compound 0.1 µM
[27] = second compound 1 µM, first compound 0.316 µM
[28] = second compound 1 µM, first compound 1 µM
[29] = second compound 1 µM, first compound 3.16 µM
[30] = second compound 1 µM, first compound 10 µM
[31] = second compound 3.16 µM, first compound 0.0316 µM
[32] = second compound 3.16 µM, first compound 0.1 µM
[33] = second compound 3.16 µM, first compound 0.316 µM
[34] = second compound 3.16 µM, first compound 1 µM
[35] = second compound 3.16 µM, first compound 3.16 µM
[36] = second compound 3.16 µM, first compound 10 µM
[37] = second compound 10 µM, first compound 0.0316 µM
[38] = second compound 10 µM, first compound 0.1 µM
[39] = second compound 10 µM, first compound 0.316 µM
[40] = second compound 10 µM, first compound 1 µM
[41] = second compound 10 µM, first compound 3.16 µM
[42] = second compound 10 µM, first compound 10 µM
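Note: spheroids exposed to agents for seven days before readout.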
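Throughout, for viability, T/C: percent of vehicle control viability where 100% = DMSO wells.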

Cc1cccc(N(C)C(=O)C2C(O)CCN2c2nc(C)cc(C(F)(F)F)c2C#N)c1 (configuration not stated) + Cc1cnc(CNC(=O)c2c(=O)c3ccc(N4CCCN(C)CC4)nc3n3c2sc2ccccc23)cn1
inactive: viability, T/C [7] 93.7% | viability, T/C [8] 107% | viability, T/C [9] 108% | viability, T/C [10] 99.7% | viability, T/C [11] 104% | viability, T/C [12] 96.9% | viability, T/C [13] 107% | viability, T/C [14] 106% | viability, T/C [15] 112% | viability, T/C [16] 98.6% | viability, T/C [17] 91.8% | viability, T/C [18] 108% | viability, T/C [19] 103% | viability, T/C [20] 84% | viability, T/C [21] 89.3% | viability, T/C [22] 93.9% | viability, T/C [23] 101% | viability, T/C [24] 82.5% | viability, T/C [25] 83.6% | viability, T/C [26] 95.6% | viability, T/C [27] 88.3% | viability, T/C [28] 88.4% | viability, T/C [29] 93.9% | viability, T/C [30] 94.3% | viability, T/C [31] 84% | viability, T/C [32] 70.5% | viability, T/C [33] 79.1% | viability, T/C [34] 72.8% | viability, T/C [35] 79.4% | viability, T/C [36] 73.3% | viability, T/C [37] 92.7% | viability, T/C [38] 90.9% | viability, T/C [39] 84.8% | viability, T/C [40] 72.6% | viability, T/C [41] 103% | viability, T/C [42] 84.3%
> 10 µM: IC50 [1] | IC50 [2] | IC50 [3] | IC50 [4] | IC50 [5] | IC50 [6]

Cc1[nH]c2ccc(F)cc2c1-c1nc2c3cccnc3c3ncccc3c2[nH]1
inactive: viability, T/C (compound 0.0316 µM) 100% [middle of 12 runs] | viability, T/C (compound 0.316 µM) 92.7% [middle of 12 runs] | viability, T/C (compound 1 µM) 76.8% [middle of 12 runs] | viability, T/C (compound 10 µM) 77.7% [middle of 12 runs]
> 10 µM: IC50 (compound alone, run of 02/20/2024) | IC50 (compound alone, run of 02/26/2024)

COc1cc(C2c3cc4c(cc3C(OC3OC5COC(C)OC5C(O)C3O)C3COC(=O)C23)OCO4)cc(OC)c1O (configuration not stated)
> 10 µM: IC50 (curve of compound)
inactive: viability, T/C (compound 0.0316 µM) 91.7% and 104% and 96.9% | viability, T/C (compound 0.1 µM) 109% and 103% and 96.3% | viability, T/C (compound 0.316 µM) 97.6% and 98.6% and 86.9% | viability, T/C (compound 1 µM) 88.8% and 96.8% and 89% | viability, T/C (compound 3.16 µM) 88.5% and 77.7% and 77.3% | viability, T/C (compound 10 µM) 85.7% and 76.8% and 76.7%

Cc1cccc(N(C)C(=O)C2C(O)CCN2c2nc(C)cc(C(F)(F)F)c2C#N)c1 (configuration not stated) + Cc1[nH]c2ccc(F)cc2c1-c1nc2c3cccnc3c3ncccc3c2[nH]1
< 0.0316 µM: IC50 [5]
> 10 µM: IC50 [1] | IC50 [2] | IC50 [3] | IC50 [4] | IC50 [6]
inactive: viability, T/C [7] 105% | viability, T/C [8] 93.1% | viability, T/C [9] 82.5% | viability, T/C [10] 100% | viability, T/C [11] 94.2% | viability, T/C [12] 93.1% | viability, T/C [13] 91.3% | viability, T/C [14] 95.3% | viability, T/C [15] 104% | viability, T/C [16] 98.6% | viability, T/C [17] 81.8% | viability, T/C [18] 87.8% | viability, T/C [19] 101% | viability, T/C [20] 101% | viability, T/C [21] 97.4% | viability, T/C [22] 79.9% | viability, T/C [23] 83.4% | viability, T/C [24] 86.7% | viability, T/C [25] 71.9% | viability, T/C [26] 70.6% | viability, T/C [27] 77.1% | viability, T/C [28] 66.2% | viability, T/C [29] 81% | viability, T/C [30] 70.8% | viability, T/C [31] 46.6% | viability, T/C [32] 41.4% | viability, T/C [33] 50.8% | viability, T/C [34] 42.6% | viability, T/C [35] 42.1% | viability, T/C [36] 43% | viability, T/C [37] 66.2% | viability, T/C [38] 68.3% | viability, T/C [39] 64.8% | viability, T/C [40] 69.1% | viability, T/C [41] 80.9% | viability, T/C [42] 82.7%
